Consider 19 compounds from patent US20250034136A1 (Nimbus Wadjet, Inc., priority 2023, published 2025).

The target in assay [1] is WRN (BV08), human Werner helicase (Uniprot Q14191, amino acids 517-1235 with L1074F point mutation) (Homo sapiens (Human), UniProt Q14191, L1074F). Put plainly: WRN (BV08) ADP-Glo assay. The class given is biochemical. The conditions noted are these: class symbols A-E, read-out: ADP-Glo_hWRN_IC50. For orientation: ADP-Glo first removes unused ATP, then detects ADP through luciferase.

Assay [2] relates to p21 induction in HCT116 cells. Put plainly: p21 induction in HCT116 cells. The conditions noted are these: Homo sapiens, HCT-116, 24 h, HCT116 cells, 24 h compound incubation; read-out: P21_EC50. The class given is cell-based. In short, it runs like this:
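EC50 from non-linear curve fit of p21 immunofluorescence (800 nm), with GAPDH (700 nm) read alongside. DMSO and a reference WRN inhibitor served as low and high controls. Cells (2,000/well) got 11 compound concentrations in duplicate for 24 h at 37 °C.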

Sequence of WRN (BV08), human Werner helicase (Uniprot Q14191, amino acids 517-1235 with L1074F point mutation) (Q14191 other isoform, or with tags, fused parts or gaps L1074F (already in the parent)): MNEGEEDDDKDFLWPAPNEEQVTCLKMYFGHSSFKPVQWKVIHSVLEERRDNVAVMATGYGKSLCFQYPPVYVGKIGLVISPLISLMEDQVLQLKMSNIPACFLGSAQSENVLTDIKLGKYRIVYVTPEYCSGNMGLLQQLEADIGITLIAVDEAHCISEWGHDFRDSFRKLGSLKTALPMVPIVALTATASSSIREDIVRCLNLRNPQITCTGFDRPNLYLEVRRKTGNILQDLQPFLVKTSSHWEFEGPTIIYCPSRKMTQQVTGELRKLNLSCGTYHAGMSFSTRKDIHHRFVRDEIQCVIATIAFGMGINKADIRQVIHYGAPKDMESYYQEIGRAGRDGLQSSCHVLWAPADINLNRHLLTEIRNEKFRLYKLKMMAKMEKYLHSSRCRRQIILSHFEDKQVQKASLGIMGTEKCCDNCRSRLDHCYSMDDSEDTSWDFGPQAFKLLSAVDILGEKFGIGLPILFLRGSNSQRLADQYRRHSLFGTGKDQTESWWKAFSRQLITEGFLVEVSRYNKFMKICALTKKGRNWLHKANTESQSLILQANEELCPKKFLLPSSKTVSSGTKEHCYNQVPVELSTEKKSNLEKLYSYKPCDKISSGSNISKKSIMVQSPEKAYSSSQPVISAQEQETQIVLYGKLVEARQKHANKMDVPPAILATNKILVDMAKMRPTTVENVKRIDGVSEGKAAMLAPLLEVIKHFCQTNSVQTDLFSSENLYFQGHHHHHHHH

On to `CCc1c(N2CCN(C(=O)c3ncnc(C)c3O)CC2)c(=O)c2nc(N3CCC[C@H]3C(C)(C)O)cnc2n1CC(=O)Nc1ccc(C(F)(F)F)cc1Cl` [I-153, N-[2-chloro-4-(trifluoromethyl)phenyl]-2-{6-ethyl-7-[4-(5-hydroxy-6-methylpyrimidine-4-carbonyl)piperazin-1-yl]-2-[(2S)-2-(2-hydroxypropan-2-yl)pyrrolidin-1-yl]-8-oxo-5H,8H-pyrido[2,3-b]pyrazin-5-yl}acetamide], for which, in assay [1], the IC50 is 5 to 50 nM. Besides, the EC50 in assay [2] was 2000 to 5000 nM.
As for `CCc1c(N2CCN(C(=O)c3ncnc(C)c3O)CC2)c(=O)c2nc(N(C)CCN(C)C)cnc2n1CC(=O)Nc1ccc(C(F)(F)F)cc1Cl` [I-154, N-[2-chloro-4-(trifluoromethyl)phenyl]-2-(2-{[2-(dimethylamino)ethyl](methyl)amino}-6-ethyl-7-[4-(5-hydroxy-6-methylpyrimidine-4-carbonyl)piperazin-1-yl]-8-oxo-5H,8H-pyrido[2,3-b]pyrazin-5-yl)acetamide], the IC50 in assay [1] was greater than 500 nM. Moreover, the EC50 in assay [2] was greater than 5000 nM.
Consider `CCc1c(N2CCN(C(=O)c3ncnc(C)c3O)CC2)c(=O)c2nc(N3C[C@@H]4[C@H](C3)[C@H]4N(C)C)cnc2n1CC(=O)Nc1ccc(C(F)(F)F)cc1Cl` [I-155, N-[2-chloro-4-(trifluoromethyl)phenyl]-2-{2-[(1R,5S,6S)-6-(dimethylamino)-3-azabicyclo[3.1.0]hexan-3-yl]-6-ethyl-7-[4-(5-hydroxy-6-methylpyrimidine-4-carbonyl)piperazin-1-yl]-8-oxo-5H,8H-pyrido[2,3-b]pyrazin-5-yl}acetamide], for which, in assay [1], the IC50 lay within 50 to 100 nM. The EC50 in assay [2] was greater than 5000 nM.
For the compound `CCc1c(N2CCN(C(=O)c3ncnc(C)c3O)CC2)c(=O)c2nc(N3CC4CC4C3)cnc2n1CC(=O)Nc1ccc(C(F)(F)F)cc1Cl` (centres unmarked) [I-156, 2-(2-{3-azabicyclo[3.1.0]hexan-3-yl}-6-ethyl-7-[4-(5-hydroxy-6-methylpyrimidine-4-carbonyl)piperazin-1-yl]-8-oxo-5H,8H-pyrido[2,3-b]pyrazin-5-yl)-N-[2-chloro-4-(trifluoromethyl)phenyl]acetamide], in assay [1], the IC50 fell in the range of 5 to 50 nM. The EC50 in assay [2] lay in the range of 500 to 2000 nM.
Taken in the same sequence, the figures for `C=C(F)c1cnc2c(n1)c(=O)c(N1CCN(C(=O)c3ncnc(C)c3O)CC1)c(CC)n2CC(=O)Nc1ccc(C(F)(F)F)cc1Cl` [I-157, N-[2-chloro-4-(trifluoromethyl)phenyl]-2-[6-ethyl-2-(1-fluoroethenyl)-7-[4-(5-hydroxy-6-methylpyrimidine-4-carbonyl)piperazin-1-yl]-8-oxo-5H,8H-pyrido[2,3-b]pyrazin-5-yl]acetamide] were 5 to 50 nM and 500 to 2000 nM.
Take `CCc1c(N2CCN(C(=O)c3c(C#N)cnc(C)c3O)CC2)c(=O)c2nc(C)cnc2n1CC(=O)Nc1ccc(C(F)(F)F)cc1Cl` [I-158, N-[2-chloro-4-(trifluoromethyl)phenyl]-2-{7-[4-(5-cyano-3-hydroxy-2-methylpyridine-4-carbonyl)piperazin-1-yl]-6-ethyl-2-methyl-8-oxo-5H,8H-pyrido[2,3-b]pyrazin-5-yl}acetamide]: the IC50 in assay [1] is 5 to 50 nM. Further, the EC50 in assay [2] is greater than 5000 nM.
For `CCc1c(N2CCN(C(=O)c3ncnc(C)c3O)CC2)c(=O)c2nc(C3=CCN(C(=O)OC)C3)cnc2n1CC(=O)Nc1ccc(C(F)(F)F)cc1Cl` [I-159, methyl 3-[5-({[2-chloro-4-(trifluoromethyl)phenyl]carbamoyl}methyl)-6-ethyl-7-[4-(5-hydroxy-6-methylpyrimidine-4-carbonyl)piperazin-1-yl]-8-oxo-5H,8H-pyrido[2,3-b]pyrazin-2-yl]-2,5-dihydro-1H-pyrrole-1-carboxylate], in that order: 5 to 50 nM and greater than 5000 nM.
For `CCc1c(N2CCN(C(=O)c3ncnc(C)c3O)CC2)c(=O)c2nc(N3CC(F)(F)C3)cnc2n1CC(=O)Nc1ccc(C(F)(F)F)cc1Cl` [I-160, N-[2-chloro-4-(trifluoromethyl)phenyl]-2-[2-(3,3-difluoroazetidin-1-yl)-6-ethyl-7-[4-(5-hydroxy-6-methylpyrimidine-4-carbonyl)piperazin-1-yl]-8-oxo-5H,8H-pyrido[2,3-b]pyrazin-5-yl]acetamide], in that order: 5 to 50 nM and greater than 5000 nM.
With `CCc1c(N2CCN(C(=O)c3ncnc(C)c3O)CC2)c(=O)c2nc(NC3CCC3)cnc2n1CC(=O)Nc1ccc(C(F)(F)F)cc1Cl` [I-161, N-[2-chloro-4-(trifluoromethyl)phenyl]-2-[2-(cyclobutylamino)-6-ethyl-7-[4-(5-hydroxy-6-methylpyrimidine-4-carbonyl)piperazin-1-yl]-8-oxo-5H,8H-pyrido[2,3-b]pyrazin-5-yl]acetamide], the IC50 in assay [1] fell in the range of 5 to 50 nM. Moreover, the EC50 in assay [2] fell in the range of 2000 to 5000 nM.
In the case of `CCc1c(N2CCN(C(=O)c3ncnc(C)c3O)CC2)c(=O)c2nc(N3CC4(CC4)C3)cnc2n1CC(=O)Nc1ccc(C(F)(F)F)cc1Cl` [I-162, 2-(2-{5-azaspiro[2.3]hexan-5-yl}-6-ethyl-7-[4-(5-hydroxy-6-methylpyrimidine-4-carbonyl)piperazin-1-yl]-8-oxo-5H,8H-pyrido[2,3-b]pyrazin-5-yl)-N-[2-chloro-4-(trifluoromethyl)phenyl]acetamide], the IC50 in assay [1] fell in the range of 5 to 50 nM. Moreover, the EC50 in assay [2] was in the range of 500 to 2000 nM.
In the case of `CCc1c(N2CCN(C(=O)c3ncnc(C)c3O)CC2)c(=O)c2nc(N3CCC4(COC4)C3)cnc2n1CC(=O)Nc1ccc(C(F)(F)F)cc1Cl` [I-163, N-[2-chloro-4-(trifluoromethyl)phenyl]-2-{6-ethyl-7-[4-(5-hydroxy-6-methylpyrimidine-4-carbonyl)piperazin-1-yl]-2-{2-oxa-6-azaspiro[3.4]octan-6-yl}-8-oxo-5H,8H-pyrido[2,3-b]pyrazin-5-yl}acetamide], the IC50 in assay [1] lay within 5 to 50 nM. Moreover, the EC50 in assay [2] was greater than 5000 nM.
For `CCc1c(N2CCN(C(=O)c3ncnc(C)c3O)CC2)c(=O)c2nc(N3CC(F)C3)cnc2n1CC(=O)Nc1ccc(C(F)(F)F)cc1Cl` [I-164, N-[2-chloro-4-(trifluoromethyl)phenyl]-2-[6-ethyl-2-(3-fluoroazetidin-1-yl)-7-[4-(5-hydroxy-6-methylpyrimidine-4-carbonyl)piperazin-1-yl]-8-oxo-5H,8H-pyrido[2,3-b]pyrazin-5-yl]acetamide], in that order: 5 to 50 nM and 2000 to 5000 nM.
For `CCc1c(N2CCN(C(=O)c3ncnc(C)c3O)CC2)c(=O)c2nc(NC3CC3)cnc2n1CC(=O)Nc1ccc(C(F)(F)F)cc1Cl` [I-165, N-[2-chloro-4-(trifluoromethyl)phenyl]-2-[2-(cyclopropylamino)-6-ethyl-7-[4-(5-hydroxy-6-methylpyrimidine-4-carbonyl)piperazin-1-yl]-8-oxo-5H,8H-pyrido[2,3-b]pyrazin-5-yl]acetamide], in that order: 5 to 50 nM and 500 to 2000 nM.
Taken in the same sequence, the figures for `CCc1c(N2CCN(C(=O)c3ncnc(C)c3O)CC2)c(=O)c2nc(C=C3CCCC3)cnc2n1CC(=O)Nc1ccc(C(F)(F)F)cc1Cl` [I-166, N-[2-chloro-4-(trifluoromethyl)phenyl]-2-[2-(cyclopentylidenemethyl)-6-ethyl-7-[4-(5-hydroxy-6-methylpyrimidine-4-carbonyl)piperazin-1-yl]-8-oxo-5H,8H-pyrido[2,3-b]pyrazin-5-yl]acetamide] were no more than 5 nM and 500 to 2000 nM.
For the compound `CCc1c(N2CCN(C(=O)c3ncnc(C)c3O)CC2)c(=O)c2nc(N(C)CC(F)F)cnc2n1CC(=O)Nc1ccc(C(F)(F)F)cc1Cl` [I-167, N-[2-chloro-4-(trifluoromethyl)phenyl]-2-{2-[(2,2-difluoroethyl)(methyl)amino]-6-ethyl-7-[4-(5-hydroxy-6-methylpyrimidine-4-carbonyl)piperazin-1-yl]-8-oxo-5H,8H-pyrido[2,3-b]pyrazin-5-yl}acetamide], in assay [1], the IC50 fell in the range of 5 to 50 nM. Moreover, the EC50 in assay [2] was 2000 to 5000 nM.
Taken in the same sequence, the figures for `CCc1c(N2CC3COCC(C2)N3C(=O)c2ncnc(C)c2O)c(=O)c2nc(N(C)C)cnc2n1CC(=O)Nc1ccc(C(F)(F)F)cc1Cl` [I-168, N-[2-chloro-4-(trifluoromethyl)phenyl]-2-[2-(dimethylamino)-6-ethyl-7-[9-(5-hydroxy-6-methylpyrimidine-4-carbonyl)-3-oxa-7,9-diazabicyclo[3.3.1]nonan-7-yl]-8-oxo-5H,8H-pyrido[2,3-b]pyrazin-5-yl]acetamide] were 100 to 500 nM and greater than 5000 nM.
Taken in the same sequence, the figures for `CCc1c(N2CCN(C(=O)c3ncnc(C)c3O)CC2)c(=O)c2nc(N3CCC34CCC4)cnc2n1CC(=O)Nc1ccc(C(F)(F)F)cc1Cl` [I-170, 2-(2-{1-azaspiro[3.3]heptan-1-yl}-6-ethyl-7-[4-(5-hydroxy-6-methylpyrimidine-4-carbonyl)piperazin-1-yl]-8-oxo-5H,8H-pyrido[2,3-b]pyrazin-5-yl)-N-[2-chloro-4-(trifluoromethyl)phenyl]acetamide] were 5 to 50 nM and less than 500 nM.
Taken in the same sequence, the figures for `CCc1c(N2CCN(C(=O)c3ncnc(C)c3O)CC2)c(=O)c2nc(C(C)(C)F)cnc2n1CC(=O)Nc1ccc(C(F)(F)F)cc1Cl` [I-174, N-[2-chloro-4-(trifluoromethyl)phenyl]-2-[6-ethyl-2-(2-fluoropropan-2-yl)-7-[4-(5-hydroxy-6-methylpyrimidine-4-carbonyl)piperazin-1-yl]-8-oxo-5H,8H-pyrido[2,3-b]pyrazin-5-yl]acetamide] were 5 to 50 nM and 2000 to 5000 nM.
On to `CCc1c(N2CCN(C(=O)c3ncnc(C)c3O)CC2)c(=O)c2nc(N(C)C(C)C)cnc2n1CC(=O)Nc1ccc(C(F)(F)F)cc1Cl` [I-175, N-[2-chloro-4-(trifluoromethyl)phenyl]-2-{6-ethyl-7-[4-(5-hydroxy-6-methylpyrimidine-4-carbonyl)piperazin-1-yl]-2-[methyl(propan-2-yl)amino]-8-oxo-5H,8H-pyrido[2,3-b]pyrazin-5-yl}acetamide], for which the IC50 in assay [1] is 5 to 50 nM. Moreover, in assay [2], the EC50 lay in the range of 2000 to 5000 nM.
